Experimental data published in patent publication US8614201B2 (Janssen Pharmaceutica NV, priority 2009, dated 2013).

These compounds were tested against Human TRPA1 (Homo sapiens, UniProt O75762) (assay: Assay 1: In vitro cellular testing of TRPA1 modulation (CHO-TREx, Fluo-3 calcium fluorescence, AITC agonist)). Conditions: CHO-TREx cells expressing human TRPA1; Fluo-3 fluorescence (FLIPR/Tetra); agonist 15 μM allyl isothiocyanate (AITC); 30 minute antagonist incubation.
Assay type: cell-based
Set-up: expressed in transfected cells; host or cells: CHO-TREx cells (Invitrogen), vector pcDNA4/TO
How it was run: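 Antagonist potency is the 50% reduction of the AITC (15 μM) calcium response, Hill-fitted against no-antagonist and 10 μM ruthenium red controls. Fluo-3-loaded (4 μM) CHO-TREx cells with tetracycline-inducible human TRPA1 got compound in HEPES saline pH 7.4 for 30 min, usually from 10 μM in three-fold dilutions.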

Chain of Human TRPA1 (O75762 whole entry): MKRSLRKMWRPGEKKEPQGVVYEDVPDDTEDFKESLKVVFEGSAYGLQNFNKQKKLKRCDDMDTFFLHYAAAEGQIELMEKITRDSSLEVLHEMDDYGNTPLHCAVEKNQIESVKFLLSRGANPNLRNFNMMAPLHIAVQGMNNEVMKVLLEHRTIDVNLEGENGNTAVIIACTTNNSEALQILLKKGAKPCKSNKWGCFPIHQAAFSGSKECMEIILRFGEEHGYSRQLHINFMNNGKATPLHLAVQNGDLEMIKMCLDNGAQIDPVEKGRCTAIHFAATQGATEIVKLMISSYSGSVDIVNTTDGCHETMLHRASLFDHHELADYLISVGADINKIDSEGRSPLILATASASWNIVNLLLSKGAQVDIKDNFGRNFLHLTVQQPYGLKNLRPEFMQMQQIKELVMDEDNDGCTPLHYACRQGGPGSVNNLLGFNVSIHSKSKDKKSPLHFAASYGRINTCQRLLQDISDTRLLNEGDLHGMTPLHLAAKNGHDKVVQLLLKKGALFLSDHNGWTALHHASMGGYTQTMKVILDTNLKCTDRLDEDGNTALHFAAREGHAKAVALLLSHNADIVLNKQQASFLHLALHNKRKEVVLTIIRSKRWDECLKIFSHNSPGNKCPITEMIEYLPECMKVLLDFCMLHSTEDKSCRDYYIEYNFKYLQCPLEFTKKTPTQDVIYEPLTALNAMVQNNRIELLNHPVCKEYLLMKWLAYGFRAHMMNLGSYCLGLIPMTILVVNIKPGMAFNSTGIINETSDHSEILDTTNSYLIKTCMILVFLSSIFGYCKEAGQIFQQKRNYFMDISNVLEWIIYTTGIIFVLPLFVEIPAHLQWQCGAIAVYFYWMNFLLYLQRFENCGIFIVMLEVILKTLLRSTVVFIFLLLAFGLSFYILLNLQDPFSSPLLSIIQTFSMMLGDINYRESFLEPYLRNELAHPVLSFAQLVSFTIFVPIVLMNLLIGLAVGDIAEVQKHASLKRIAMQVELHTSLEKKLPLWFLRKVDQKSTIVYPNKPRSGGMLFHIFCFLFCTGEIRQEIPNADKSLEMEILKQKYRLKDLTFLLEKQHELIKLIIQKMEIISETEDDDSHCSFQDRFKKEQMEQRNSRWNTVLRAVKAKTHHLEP

First: O=C(NCc1cc(-c2ccc(C(F)(F)F)cc2)nc(N2CCN(Cc3ccncc3)CC2)c1)[C@@H]1CCCN1S(=O)(=O)c1ccc(F)cc1 [Example 342, 1-[(4-Fluorophenyl)sulfonyl]-N-({2-[4-(pyridin-4-ylmethyl)piperazin-1-yl]-6-[4-(trifluoromethyl)phenyl]pyridin-4-yl}methyl)-L-prolinamide]
Second: O=C(NCc1cc(-c2ccc(C(F)(F)F)cc2)nc(N2CCN(Cc3ccncc3)CC2)c1)[C@@H]1CC(F)(F)CN1S(=O)(=O)c1ccc(F)cc1 [Example 356, 4,4-Difluoro-1-[(4-fluorophenyl)sulfonyl]-N-({2-[4-(pyridin-4-ylmethyl)piperazin-1-yl]-6-[4-(trifluoromethyl)phenyl]pyridin-4-yl}methyl)-L-prolinamide]
The IC50 of the first is lower: 296 nM for the first, over 10000 nM for the second. The first is the more potent here.

Compared with `O=C(NCc1cc(NCc2ccncc2)nc(-c2ccc(C(F)(F)F)cc2)c1)[C@@H]1CC(F)(F)CN1S(=O)(=O)c1ccc(F)cc1` [Example 343, 4,4-Difluoro-1-[(4-fluorophenyl)sulfonyl]-N-({2-[(pyridin-4-ylmethyl)amino]-6-[4-(trifluoromethyl)phenyl]pyridin-4-yl}methyl)-L-prolinamide], `O=C(NCc1cc(NCc2ccncc2)nc(-c2ccc(C(F)(F)F)cc2)c1)[C@@H]1C=CCN1S(=O)(=O)c1ccc(F)cc1` [Example 344, (2S)-1-[(4-Fluorophenyl)sulfonyl]-N-({2-[(pyridin-4-ylmethyl)amino]-6-[4-(trifluoromethyl)phenyl]pyridin-4-yl}methyl)-2,5-dihydro-1H-pyrrole-2-carboxamide] is higher in IC50: 1060 nM for the first, over 10000 nM for the second.

Compared with `O=C(NCc1cc(NCc2cccnc2)nc(-c2ccc(C(F)(F)F)cc2)c1)[C@@H]1C=CCN1S(=O)(=O)c1ccc(Cl)s1` [Example 345, (2S)-1-[(5-Chlorothiophen-2-yl)sulfonyl]-N-({2-[(pyridin-3-ylmethyl)amino]-6-[4-(trifluoromethyl)phenyl]pyridin-4-yl}methyl)-2,5-dihydro-1H-pyrrole-2-carboxamide], `CC(Nc1cc(CNC(=O)[C@@H]2C=CCN2S(=O)(=O)c2ccc(Cl)s2)cc(-c2ccc(C(F)(F)F)cc2)n1)c1cccnc1` (stereo partly drawn) [Example 351, (2S)-1-[(5-Chlorothiophen-2-yl)sulfonyl]-N-({2-[(1-pyridin-3-ylethyl)amino]-6-[4-(trifluoromethyl)phenyl]pyridin-4-yl}methyl)-2,5-dihydro-1H-pyrrole-2-carboxamide] is higher in IC50: 2500 nM for the first, over 10000 nM for the second. The first is the more potent here.

Compared with `O=C(NCc1cc(NCc2cccnc2)nc(-c2ccc(C(F)(F)F)cc2)c1)[C@@H]1C=CCN1S(=O)(=O)c1ccc(F)cc1` [Example 346, (2S)-1-[(4-Fluorophenyl)sulfonyl]-N-({2-[(pyridin-3-ylmethyl)amino]-6-[4-(trifluoromethyl)phenyl]pyridin-4-yl}methyl)-2,5-dihydro-1H-pyrrole-2-carboxamide], `CC(Nc1cc(CNC(=O)[C@@H]2C=CCN2S(=O)(=O)c2ccc(F)cc2)cc(-c2ccc(C(F)(F)F)cc2)n1)c1cccnc1` (stereo partly drawn) [Example 350, (2S)-1-[(4-Fluorophenyl)sulfonyl]-N-({2-[(1-pyridin-3-ylethyl)amino]-6-[4-(trifluoromethyl)phenyl]pyridin-4-yl}methyl)-2,5-dihydro-1H-pyrrole-2-carboxamide] is lower in IC50: over 10000 nM for the first, 7260 nM for the second. The second is the more potent here.

Compared with `O=C(NCc1cc(NCc2ccccn2)nc(-c2ccc(C(F)(F)F)cc2)c1)[C@@H]1CCCN1S(=O)(=O)c1ccc(Cl)s1` [Example 347, 1-[(5-Chlorothiophen-2-yl)sulfonyl]-N-({2-[(pyridin-2-ylmethyl)amino]-6-[4-(trifluoromethyl)phenyl]pyridin-4-yl}methyl)-L-prolinamide], `O=C(NCc1cc(NCc2ccncc2)nc(-c2ccc(C(F)(F)F)cc2)c1)[C@@H]1CCCN1S(=O)(=O)c1ccc(Cl)s1` [Example 364, 1-[(5-Chlorothiophen-2-yl)sulfonyl]-N-({2-[(pyridin-4-ylmethyl)amino]-6-[4-(trifluoromethyl)phenyl]pyridin-4-yl}methyl)-L-prolinamide] is 5.3-fold higher in IC50: 518 nM for the first, 2730 nM for the second.

First: O=C(NCc1cc(-c2ccc(C(F)(F)F)cc2)nc(N2CCN(Cc3ccccn3)CC2)c1)[C@@H]1CCCN1S(=O)(=O)c1ccc(F)cc1 [Example 348, 1-[(4-Fluorophenyl)sulfonyl]-N-({2-[4-(pyridin-2-ylmethyl)piperazin-1-yl]-6-[4-(trifluoromethyl)phenyl]pyridin-4-yl}methyl)-L-prolinamide]
Second: O=C(NCc1cc(-c2ccc(C(F)(F)F)cc2)nc(N2CCN(Cc3ccccn3)CC2)c1)[C@@H]1C=CCN1S(=O)(=O)c1ccc(F)cc1 [Example 353, (2S)-1-[(4-Fluorophenyl)sulfonyl]-N-({2-[4-(pyridin-2-ylmethyl)piperazin-1-yl]-6-[4-(trifluoromethyl)phenyl]pyridin-4-yl}methyl)-2,5-dihydro-1H-pyrrole-2-carboxamide]
The IC50 of the first is 1.7-fold lower: 1630 nM for the first, 2750 nM for the second.

`CC(Nc1cc(CNC(=O)[C@@H]2CCCN2S(=O)(=O)c2ccc(F)cc2)cc(-c2ccc(C(F)(F)F)cc2)n1)c1cccnc1` (stereo partly drawn) [Example 349, 1-[(4-Fluorophenyl)sulfonyl]-N-({2-[(1-pyridin-3-ylethyl)amino]-6-[4-(trifluoromethyl)phenyl]pyridin-4-yl}methyl)-L-prolinamide] and `CNc1cc(CNC(=O)[C@@H]2CC(F)(F)CN2S(=O)(=O)c2ccc(F)cc2)cc(-c2ccc(C(F)(F)F)cc2)n1` [Example 360, 4,4-Difluoro-1-[(4-fluorophenyl)sulfonyl]-N-({2-(methylamino)-6-[4-(trifluoromethyl)phenyl]pyridin-4-yl}methyl)-L-prolinamide] are within 1.5-fold of each other in IC50: 1690 nM for the first, 2280 nM for the second.

First: O=C(NCc1cc(NCc2ccccc2)nc(-c2ccc(C(F)(F)F)cc2)c1)[C@@H]1CC(F)(F)CN1S(=O)(=O)c1ccc(Cl)s1 [Example 352, N-({2-(Benzylamino)-6-[4-(trifluoromethyl)phenyl]pyridin-4-yl}methyl)-1-[(5-chlorothiophen-2-yl)sulfonyl]-4,4-difluoro-L-prolinamide]
Second: O=C(NCc1cc(-c2ccc(C(F)(F)F)cc2)nc(N2CCN(c3ccccc3F)CC2)c1)[C@@H]1CC(F)(F)CN1S(=O)(=O)c1ccc(Cl)s1 [Example 358, 1-[(5-Chlorothiophen-2-yl)sulfonyl]-4,4-difluoro-N-({2-[4-(2-fluorophenyl)piperazin-1-yl]-6-[4-(trifluoromethyl)phenyl]pyridin-4-yl}methyl)-L-prolinamide]
The IC50 of the first is lower: 7090 nM for the first, over 10000 nM for the second.

`O=C(NCc1cc(-c2ccc(C(F)(F)F)cc2)nc(N2CCN(Cc3ccccn3)CC2)c1)[C@@H]1C=CCN1S(=O)(=O)c1ccc(Cl)s1` [Example 354, (2S)-1-[(5-Chlorothiophen-2-yl)sulfonyl]-N-({2-[4-(pyridin-2-ylmethyl)piperazin-1-yl]-6-[4-(trifluoromethyl)phenyl]pyridin-4-yl}methyl)-2,5-dihydro-1H-pyrrole-2-carboxamide] and `O=C(NCc1cc(-c2ccc(C(F)(F)F)cc2)nc(N2CCN(Cc3cccnc3)CC2)c1)[C@@H]1C=CCN1S(=O)(=O)c1ccc(Cl)s1` [Example 355, (2S)-1-[(5-Chlorothiophen-2-yl)sulfonyl]-N-({2-[4-(pyridin-3-ylmethyl)piperazin-1-yl]-6-[4-(trifluoromethyl)phenyl]pyridin-4-yl}methyl)-2,5-dihydro-1H-pyrrole-2-carboxamide] are within 1.5-fold of each other in IC50: 1070 nM for the first, 891 nM for the second.

Going from `O=C(NCc1cc(-c2ccc(C(F)(F)F)cc2)nc(N2CCN(c3ccccc3F)CC2)c1)[C@@H]1CC(F)(F)CN1S(=O)(=O)c1ccc(F)cc1` [Example 357, 4,4-Difluoro-N-({2-[4-(2-fluorophenyl)piperazin-1-yl]-6-[4-(trifluoromethyl)phenyl]pyridin-4-yl}methyl)-1-[(4-fluorophenyl)sulfonyl]-L-prolinamide] to `O=C(NCc1cc(-c2ccc(C(F)(F)F)cc2)nc(N2CCN(Cc3cccnc3)CC2)c1)[C@@H]1CC(F)(F)CN1S(=O)(=O)c1ccc(F)cc1` [Example 363, 4,4-Difluoro-1-[(4-fluorophenyl)sulfonyl]-N-({2-[4-(pyridin-3-ylmethyl)piperazin-1-yl]-6-[4-(trifluoromethyl)phenyl]pyridin-4-yl}methyl)-L-prolinamide], the IC50 falls from over 10000 nM to 4870 nM.

First: O=C(NCc1cc(-c2ccc(C(F)(F)F)cc2)nc(N2CCN(c3ccccc3F)CC2)c1)[C@@H]1C=CCN1S(=O)(=O)c1ccc(Cl)s1 [Example 359, (2S)-1-[(5-Chlorothiophen-2-yl)sulfonyl]-N-({2-[4-(2-fluorophenyl)piperazin-1-yl]-6-[4-(trifluoromethyl)phenyl]pyridin-4-yl}methyl)-2,5-dihydro-1H-pyrrole-2-carboxamide]
Second: O=C(NCc1cc(-c2ccc(C(F)(F)F)cc2)nc(N2CCN(Cc3ccccc3)CC2)c1)[C@@H]1C=CCN1S(=O)(=O)c1ccc(F)cc1 [Example 361, (2S)—N-({2-(4-Benzylpiperazin-1-yl)-6-[4-(trifluoromethyl)phenyl]pyridin-4-yl}methyl)-1-[(4-fluorophenyl)sulfonyl]-2,5-dihydro-1H-pyrrole-2-carboxamide]
The IC50 of the first is 2.6-fold higher: 1190 nM for the first, 452 nM for the second.

`O=C(NCc1cc(-c2ccc(C(F)(F)F)cc2)nc(N2CCN(Cc3cccnc3)CC2)c1)[C@@H]1C=CCN1S(=O)(=O)c1ccc(F)cc1` [Example 365, (2S)-1-[(4-Fluorophenyl)sulfonyl]-N-({2-[4-(pyridin-3-ylmethyl)piperazin-1-yl]-6-[4-(trifluoromethyl)phenyl]pyridin-4-yl}methyl)-2,5-dihydro-1H-pyrrole-2-carboxamide] and `O=C(NCc1cc(-c2ccc(C(F)(F)F)cc2)nc(N2CCN(Cc3cccnc3)CC2)c1)[C@@H]1CC(F)(F)CN1S(=O)(=O)c1ccc(Cl)s1` [Example 366] are within 1.5-fold of each other in IC50: 1690 nM for the first, 1650 nM for the second.
